Values after ≈ are worked out from the molar mass of the structure shown.

Assay [1] concerns Leishmania amazonensis promastigotes. In words: Mitochondria membrane potential (ΔΨm), Rh123 flow cytometry. The class given is cell-based. As to conditions: for Reduction in ΔΨm: lapachol 76.62 µg/mL, β-lapachone 1.63 µg/mL, H2O2 2 mM; for Variation Index (VI) of Rh123 fluorescence, (MT−MC)/MC: lapachol 76.62 μg/mL, β-lapachone 1.63 μg/mL, PC 2 mM. Here is the method:
The ΔΨm was determined using on BD FacsCalibur™ flow cytometer and CellQuest Pro software, with a total of 10.000 events acquired, using a mitochondrial-specific green-fluorescent dye Rh123 ([31]). Briefly, L. amazonensis (2×10^7 parasites/mL) were incubated with lapachol (76.62 µg/mL) and β-lapachone (1.63 µg/mL) for 1, 4, and 24 h at 25°C. After washed with PBS, the parasites were incubated with 5 μg/mL Rh123 for 15 min. After the incubation time, the cells were washed and suspended in PBS for additional incubation of 30 min for analysis. The percentage of fluorescence of Rh123, was determined by the (MT/MC)*100 equation, with MT representing the median fluorescence of the treated parasites and the MC the median fluorescence of negative controls. Alteration in ΔΨm was quantified using an index of variation (IV) obtained by the equation IV = (MT - MC)/MC, where negative IV values correspond to depolarization of the mitochondrial membrane. H2O2 (2 mM) was used as a positive control ([32]).

Assay [2] shares this test system. Description: Change in cell volume and morphology of the parasites (flow cytometry FSC-H/SSC-H, SEM). The class given is cell-based. To be noted: 24 h; lapachol 76.62 µg/mL, β-lapachone 1.63 µg/mL, H2O2 2 mM; untreated 93.14%. Here is the method:
Promastigote forms (2×10^7 cells) of L. amazonensis untreated (negative control) or treated with 76.62 µg/mL of lapachol and 1.63 µg/mL of β-lapachone were analyzed to observe changes in cell morphology of the parasites induced by the treatment after 24 h of incubation. […] Subsequently, the parasites were analyzed using a BD FacsCalibur flow cytometer (Becton Dickinson, USA) and CellQuest Pro software (Joseph Trotter, Scripps Research Institute, USA), and 10,000 events were acquired. Dot plots were generated, the forward scatter (FSC-H) parameter was analyzed as presenting a correlation with the cell volume.
Scanning electron microscopy (SEM) also was performed to analyze morphological changes in cell surface topography. After 24 h of treatment, the parasites were centrifuged at 576 g for 10 min, and the samples were fixed in 2.5% glutaraldehyde and 0.1 M sodium cacodylate buffer. Poly-L-lysine was used to promote the adhesion of fixed parasites on coverslips. Promastigotes were dehydrated with increasing ethanol concentrations (30-100%), submitted to critical point drying, and metalized with gold for visualization on a Shimadzu 55-550 (Japan) microscope.

The test system is the same in assay [3]. Description: Viability assay of promastigotes, XTT colorimetric method (LD50). To be noted: 25°C. The assay is classed as cell-based, Leishmania amazonensis (MHOM/BR/1977/LTB0016). Here is the method:
The viability of L. amazonensis (MHOM/BR/1977/LTB0016) promastigotes was evaluated using the XTT colorimetric method, which consists in the XTT salt degradation by the mitochondria forming formazan crystals. Promastigote forms (2×10^7 parasites/mL) from a culture in logarithmic growth phase were incubated with lapachol and β-lapachone diluted in 199 culture medium. The drugs were diluted in series, in a ratio of two, starting from 1/2, on a 96-well cell culture plate (TPP™ test plate, Switzerland). The compounds were tested at concentrations from 204.4 to 0.40 µg/mL (lapachol) and 157.5 to 0.31 µg/mL (β-lapachone). After 24, 48, and 72 h of incubation at 25°C, 100 μL of the XTT solution (500 μg/mL) activated with PMS (50 μg/mL) were added to each well and incubated for 4 h at 37°C. The result was measured by absorbance, determined by spectrophotometry (450/650 nm filter, VersaMax™ ELISA microplate reader, USA). The lethal dose (LD50) was defined as the concentrations of the compounds that reduced survival of L. amazonensis by 50% compared to untreated parasites in culture medium. AmB (1.96 to 0.25 µg/mL) was used as positive control of leishmanicidal activity. The therapeutic selectivity index (TSI CC50/LD50) was calculated by the ratio of toxicity to macrophage vs toxicity to parasites after 24 h incubation ([28]). All assays were performed in triplicate and repeated at least three times.

Assay [4] has the same test system. In words: Promastigote growth inhibition, counting in Neubauer chamber (IC50). The assay is classed as cell-based, Leishmania amazonensis (MHOM/BR/1977/LTB0016). As to conditions: Leishmania amazonensis; 24 h incubation, growth inhibition by counting. Here is the method: Leishmania growth was evaluated after 24 h of incubation at 25°C with the compounds under the same conditions as previously mentioned. Then, 10 µL of the content of each well was added to a 990 µL (1/100) of formalin solution (2%), and the parasites were counted in a Neubauer chamber. The inhibitory concentration (IC50) of promastigotes was calculated by comparing with untreated promastigotes in culture medium. The results were evaluated by linear regression of the inhibition percentage. The selectivity index (SI CC50/IC50) was calculated by the ratio of toxicity concentration to macrophage vs inhibitory concentration to the parasite growth after 24 h incubation ([27]). All assays were performed in triplicate and repeated at least three times.

On to `OO` [H2O2, reference compound], for which the figures for the “Reduction in ΔΨm” value in assay [1] (1 h) and in assay [1] (24 h) were 97% and 98%, respectively. The entries for the “Variation Index (VI) of Rh123 fluorescence, (MT−MC)/MC” value in assay [1] (1 h), in assay [1] (4 h) and in assay [1] (24 h) were -0.97, -0.98 and -0.98, respectively. Also, the “Percentage population of the lower left quadrant gate (FSC-H/SSC-H, cell volume)” value in assay [2] is on record as 49.51%.

On to `C[C@@H]1[C@H](O)[C@@H](C)/C=C/C=C/C=C/C=C/C=C/C=C/C=C/[C@H](O[C@@H]2O[C@H](C)[C@@H](O)[C@H](N)[C@@H]2O)C[C@@H]2O[C@](O)(C[C@@H](O)C[C@@H](O)[C@H](O)CC[C@@H](O)C[C@@H](O)CC(=O)O[C@H]1C)C[C@H](O)[C@H]2C(=O)O` [AmB, Amphotericin B, reference compound], for which the entries for the “Promastigotes LD50” value in assay [3] (24 h incubation), in assay [3] (48 h incubation) and in assay [3] (72 h incubation) were 0.97 ± 0.09 µg/mL, 1.65 ± 0.02 µg/mL and 0.80 ± 0.03 µg/mL, respectively. Moreover, the IC50 in assay [4] turned out to be 0.632 ± 0.12 µg/mL (≈ 0.684 µM).

Source of the values: publication PMC10229078, “In vitro effects of lapachol and β-lapachone against Leishmania amazonensis” (Brazilian Journal of Medical and Biological Research, 2023).
